Read-outs that look alike come from different tables or passages of the source.
Legend:
[1] = tested on: HCC-78 NSCLC cells (SLC34A2-ROS1 fusion); assay: ROS1-dependent proliferation of HCC-78 NSCLC cells (BrdU ELISA); format: cell-based; conditions: Homo sapiens
Procedure: (§1) Both HCC-78 and NCI-H2228 cells were received from DSMZ and ATCC respectively as a frozen biological sample thawed into a T-75 flask (Nunc) and grown until 80 to 90% confluent for adherent cells or until cells were at a density of 1-2×10^6 cells/mL for suspension cells.
(§2) Cells were grown at 37° C. in a humidified, 5% CO2 atmosphere for 16 hours. […] Cells were assayed for proliferation by monitoring BrdU incorporation. […] After BrdU labelling, cells were fixed with FixDenat solution. anti-BrdU peroxidase (POD) conjugate was added and plates were washed with 1×PBS. Substrate solution was added, and luminescence measurements were taken on a Victor Wallac V plate reader (Perkin Elmer).

[2] = tested on: NCI-H2228 cells (EML4-ALK fusion); assay: BrdU ELISA proliferation of NCI-H2228 cells; format: cell-based; conditions: Homo sapiens, BrdU incorporation
Procedure: as §1, §2

RET = RET (Homo sapiens, UniProt P07949); conditions: cited from earlier work
Chain of RET (P07949 29-1114, species assumed): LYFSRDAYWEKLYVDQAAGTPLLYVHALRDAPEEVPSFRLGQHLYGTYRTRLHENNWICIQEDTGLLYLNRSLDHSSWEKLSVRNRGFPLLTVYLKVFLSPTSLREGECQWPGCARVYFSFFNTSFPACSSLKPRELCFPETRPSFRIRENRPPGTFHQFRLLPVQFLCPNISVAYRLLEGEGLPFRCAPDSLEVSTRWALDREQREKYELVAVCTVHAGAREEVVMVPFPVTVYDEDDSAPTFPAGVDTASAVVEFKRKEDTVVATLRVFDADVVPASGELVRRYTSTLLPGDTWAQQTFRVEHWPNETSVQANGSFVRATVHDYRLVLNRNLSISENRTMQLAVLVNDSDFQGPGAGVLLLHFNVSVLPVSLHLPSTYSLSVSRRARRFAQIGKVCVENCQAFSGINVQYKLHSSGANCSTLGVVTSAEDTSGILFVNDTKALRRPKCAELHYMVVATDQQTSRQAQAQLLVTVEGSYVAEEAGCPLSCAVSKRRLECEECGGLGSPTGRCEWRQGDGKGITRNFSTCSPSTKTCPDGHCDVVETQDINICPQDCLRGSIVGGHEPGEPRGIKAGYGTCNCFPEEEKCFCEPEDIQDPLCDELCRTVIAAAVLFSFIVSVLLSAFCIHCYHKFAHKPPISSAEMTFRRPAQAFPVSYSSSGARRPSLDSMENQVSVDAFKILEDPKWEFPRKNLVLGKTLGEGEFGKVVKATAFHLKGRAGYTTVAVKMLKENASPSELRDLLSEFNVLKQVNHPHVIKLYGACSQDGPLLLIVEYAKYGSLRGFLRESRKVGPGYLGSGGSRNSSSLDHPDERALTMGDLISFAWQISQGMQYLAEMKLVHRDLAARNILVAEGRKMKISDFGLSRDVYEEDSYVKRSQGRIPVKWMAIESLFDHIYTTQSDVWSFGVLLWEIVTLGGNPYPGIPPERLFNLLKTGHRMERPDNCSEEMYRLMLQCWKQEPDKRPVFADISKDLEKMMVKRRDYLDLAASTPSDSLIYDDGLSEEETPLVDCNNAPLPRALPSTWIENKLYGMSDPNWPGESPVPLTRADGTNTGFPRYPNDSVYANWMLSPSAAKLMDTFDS

SLC34A2-ROS1 fusion = target: T1, SLC34A2-ROS1 fusion (Homo sapiens, UniProt P08922); assay: Inhibition of ROS1 phosphorylation in HCC-78 cells (western blot); format: cell-based; conditions: single escalating doses, 3 hour incubation, versus Crizotinib
T1 construct: a portion of the ROS1 polypeptide comprising the kinase domain of the ROS1 protein; N-terminal portion of SLC34A2 (natural fusion partner, O95436); host or cells: HCC-78 (human NSCLC adenocarcinoma); the other entry of the earlier key: SLC34A2 (O95436, Sodium-dependent phosphate transport protein 2B)
T1 sequence (P08922 1945-2222 limits assumed): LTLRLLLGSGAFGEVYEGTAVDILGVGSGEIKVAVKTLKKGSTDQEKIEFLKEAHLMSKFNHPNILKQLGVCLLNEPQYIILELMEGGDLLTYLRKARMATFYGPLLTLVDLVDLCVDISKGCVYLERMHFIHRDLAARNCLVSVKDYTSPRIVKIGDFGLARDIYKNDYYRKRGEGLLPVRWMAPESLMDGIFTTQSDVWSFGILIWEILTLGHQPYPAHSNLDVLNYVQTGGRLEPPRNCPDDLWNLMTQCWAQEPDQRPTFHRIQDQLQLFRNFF
Procedure: HCC-78 cells, a human lung NSCLC adenocarcinoma cell line (DSMZ, ACC 563) harboring the activating SLC34A2-ROS1 fusion and phosphor-Met, were seeded at 3×10^5 cells/well onto 6-well plates (Nunclon, 152795), RPMI 1640 (ATCC, 30-2001) containing 10% FBS (heat-inactivated, Cellgro) and 1% penicillin-streptomycin (Cellgro). DMSO or serial dilutions of compound 1 in fresh medium with 10% FBS in a final concentration of 0.3% DMSO (vehicle) were added to the cells and incubated for 3 hour. After treatment, cells were collected and washed with cold PBS and immediately lysed with 0.15 mL of cold lysis buffer (50 mM Tris HCl, pH 8.0, 150 mM NaCl, 1% NP 40, 0.1% SDS, 0.5% sodium deoxycholate, 1 mM EDTA, 50 mM NaF, 1 mM sodium pyrophosphate, 1 mM Na3VO4, 2 mM PMSF, 10 μg/mL aprotinin, 5 μg/mL leupeptin and 5 pμg/mL pepstatin A). Lysates were collected, and protein concentrations were measured by the BCA method (Pierce). […] The membranes were scanned using the Odyssey Scanner (Li-Cor) and the signal intensity of each band was quantified using ImageQuant (Molecular Devices). IC50 values were calculated based on the signal with compound treatment compared to the vehicle (DMSO) control.

IC50 ([1]; HCC78, 48 h, read-out: 48 hr Prolif. IC50 (nM))	IC50 ([1]; HCC78, 72 h, read-out: 72 hr Prolif. IC50 (nM))	IC50 ([2]; NCI-H2228, 48 hr incubation, read-out: 48 hr Prolif. IC50)	IC50 ([2]; NCI-H2228, 72 hr incubation, read-out: 72 hr Prolif. IC50)	Inhibition of SLC34A2-ROS1 mediated kinase activity (ROS1 phosphorylation) (SLC34A2-ROS1 fusion)	IC50 ([1]; HCC78, HCC-78, 48 hr incubation, BrdU incorporation, read-out: 48 hr Prolif. IC50)	IC50 ([1]; HCC78, HCC-78, 72 hr incubation, BrdU incorporation, read-out: 72 hr Prolif. IC50)	SMILES	inhibitor of RET (RET)
100 to 500 nM	10 to 100 nM	–	–	–	–	–	C[C@@H](Oc1cc(-c2cnn(C3CCNCC3)c2)cnc1N)c1c(Cl)ccc(F)c1Cl [Crizotinib, 3-[(1R)-1-(2,6-dichloro-3-fluorophenyl)ethoxy]-5-(1-piperidin-4-ylpyrazol-4-yl)pyridin-2-amine, reference compound]	–
–	–	1 to 5 µM	5 to 10 µM	more potent than the comparator control	10 to 100 nM	10 to 100 nM	COc1cc2nccc(Oc3ccc(NC(=O)C4(C(=O)Nc5ccc(F)cc5)CC4)cc3)c2cc1OC [Compound 1, N-(4-{[6,7-bis(methyloxy)quinolin-4-yl]oxy}phenyl)-N′-(4-fluorophenyl)cyclopropane-1,1-dicarboxamide]	potent inhibitor

Reference: US20170042880A1, “Method of Treating Lung Adenocarcinoma” (Exelixis, Inc., priority 2014, published 2017)
